ChEMBL document CHEMBL3991601, “The target landscape of clinical kinase drugs” (Science, 2017)
The source made the active and inactive calls.

How the values were obtained:
ADP/ATP translocase 3 = molecular target: T1, ADP/ATP translocase 3 (Homo sapiens, UniProt P12236)
T1 sequence (P12236 whole entry): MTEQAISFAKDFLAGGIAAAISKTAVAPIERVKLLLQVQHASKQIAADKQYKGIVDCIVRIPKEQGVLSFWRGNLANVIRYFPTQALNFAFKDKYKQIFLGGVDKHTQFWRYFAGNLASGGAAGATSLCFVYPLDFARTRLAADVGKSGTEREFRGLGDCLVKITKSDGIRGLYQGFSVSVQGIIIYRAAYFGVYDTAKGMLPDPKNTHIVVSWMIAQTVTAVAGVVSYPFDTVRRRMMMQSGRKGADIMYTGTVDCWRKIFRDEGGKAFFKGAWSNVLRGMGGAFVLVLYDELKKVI

[1] = molecular target: T2, Signal recognition particle receptor subunit alpha (Homo sapiens, UniProt P08240)
T2 sequence (P08240 whole entry): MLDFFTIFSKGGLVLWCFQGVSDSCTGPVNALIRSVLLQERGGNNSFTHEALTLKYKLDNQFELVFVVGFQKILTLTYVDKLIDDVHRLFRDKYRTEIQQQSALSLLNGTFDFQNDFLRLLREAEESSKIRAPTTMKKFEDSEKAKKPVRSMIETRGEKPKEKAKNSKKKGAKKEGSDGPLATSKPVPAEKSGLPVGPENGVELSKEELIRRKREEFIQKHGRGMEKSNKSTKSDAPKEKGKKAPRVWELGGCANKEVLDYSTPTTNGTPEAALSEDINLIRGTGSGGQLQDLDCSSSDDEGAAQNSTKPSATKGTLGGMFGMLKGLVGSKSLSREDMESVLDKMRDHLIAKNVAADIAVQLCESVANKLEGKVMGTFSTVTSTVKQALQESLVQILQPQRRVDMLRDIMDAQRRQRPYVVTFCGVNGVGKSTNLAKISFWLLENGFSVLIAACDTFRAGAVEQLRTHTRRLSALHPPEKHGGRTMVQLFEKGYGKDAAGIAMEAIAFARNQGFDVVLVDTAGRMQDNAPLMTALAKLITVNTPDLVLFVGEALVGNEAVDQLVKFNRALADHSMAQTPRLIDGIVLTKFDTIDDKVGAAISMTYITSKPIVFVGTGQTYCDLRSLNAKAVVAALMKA

DNA topoisomerase 2-beta = DNA topoisomerase 2-beta (Homo sapiens, UniProt Q02880)
[2] = molecular target: 26S proteasome regulatory subunit 6B (Homo sapiens, UniProt P43686)
[3] = molecular target: T3, Peroxisomal acyl-coenzyme A oxidase 3 (Homo sapiens, UniProt O15254)
T3 sequence (O15254 whole entry): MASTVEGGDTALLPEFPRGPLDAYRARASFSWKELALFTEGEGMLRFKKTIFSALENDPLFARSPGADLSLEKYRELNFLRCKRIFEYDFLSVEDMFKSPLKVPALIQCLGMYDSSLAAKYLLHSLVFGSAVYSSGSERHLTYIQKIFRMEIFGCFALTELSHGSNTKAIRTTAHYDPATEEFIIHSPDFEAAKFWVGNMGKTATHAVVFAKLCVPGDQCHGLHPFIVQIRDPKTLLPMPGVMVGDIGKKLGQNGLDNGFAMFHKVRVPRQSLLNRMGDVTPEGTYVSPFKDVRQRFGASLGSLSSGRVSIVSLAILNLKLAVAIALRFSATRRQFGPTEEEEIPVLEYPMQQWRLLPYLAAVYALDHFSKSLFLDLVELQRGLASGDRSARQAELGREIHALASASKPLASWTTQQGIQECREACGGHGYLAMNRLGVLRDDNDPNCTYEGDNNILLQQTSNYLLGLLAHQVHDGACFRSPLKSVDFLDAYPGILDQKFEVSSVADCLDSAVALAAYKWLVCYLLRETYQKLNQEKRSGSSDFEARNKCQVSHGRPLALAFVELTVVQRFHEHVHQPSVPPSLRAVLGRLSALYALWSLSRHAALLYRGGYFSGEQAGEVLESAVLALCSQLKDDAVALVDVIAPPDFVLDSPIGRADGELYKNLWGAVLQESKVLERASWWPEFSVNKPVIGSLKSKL

[4] = molecular target: Atypical kinase COQ8A, mitochondrial (Homo sapiens, UniProt Q8NI60)
[5] = molecular target: T4, Tyrosine-protein kinase Tec (Homo sapiens, UniProt P42680)
T4 sequence (P42680 whole entry): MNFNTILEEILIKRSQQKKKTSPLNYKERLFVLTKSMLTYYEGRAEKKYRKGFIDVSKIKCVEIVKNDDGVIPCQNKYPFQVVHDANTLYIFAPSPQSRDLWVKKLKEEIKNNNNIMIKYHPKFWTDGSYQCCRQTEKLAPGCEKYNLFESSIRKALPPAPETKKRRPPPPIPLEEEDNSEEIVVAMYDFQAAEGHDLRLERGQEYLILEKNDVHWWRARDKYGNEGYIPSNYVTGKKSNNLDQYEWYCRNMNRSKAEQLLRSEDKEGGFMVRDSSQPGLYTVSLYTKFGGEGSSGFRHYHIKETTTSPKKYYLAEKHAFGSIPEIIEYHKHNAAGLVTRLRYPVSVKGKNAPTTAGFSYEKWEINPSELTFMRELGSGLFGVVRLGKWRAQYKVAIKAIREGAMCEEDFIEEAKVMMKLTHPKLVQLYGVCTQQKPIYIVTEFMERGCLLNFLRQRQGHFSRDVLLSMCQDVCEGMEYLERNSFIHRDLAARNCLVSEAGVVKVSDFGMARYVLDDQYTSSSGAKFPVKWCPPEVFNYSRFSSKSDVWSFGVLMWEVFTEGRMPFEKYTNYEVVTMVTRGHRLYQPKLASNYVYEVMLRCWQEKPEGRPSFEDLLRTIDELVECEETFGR

[6] = molecular target: MAP kinase-activated protein kinase 2 (Homo sapiens, UniProt P49137)
Note: in the data inactive means no Kd found up to 30 µM.

Sequence of DNA topoisomerase 2-beta (Q02880 whole entry): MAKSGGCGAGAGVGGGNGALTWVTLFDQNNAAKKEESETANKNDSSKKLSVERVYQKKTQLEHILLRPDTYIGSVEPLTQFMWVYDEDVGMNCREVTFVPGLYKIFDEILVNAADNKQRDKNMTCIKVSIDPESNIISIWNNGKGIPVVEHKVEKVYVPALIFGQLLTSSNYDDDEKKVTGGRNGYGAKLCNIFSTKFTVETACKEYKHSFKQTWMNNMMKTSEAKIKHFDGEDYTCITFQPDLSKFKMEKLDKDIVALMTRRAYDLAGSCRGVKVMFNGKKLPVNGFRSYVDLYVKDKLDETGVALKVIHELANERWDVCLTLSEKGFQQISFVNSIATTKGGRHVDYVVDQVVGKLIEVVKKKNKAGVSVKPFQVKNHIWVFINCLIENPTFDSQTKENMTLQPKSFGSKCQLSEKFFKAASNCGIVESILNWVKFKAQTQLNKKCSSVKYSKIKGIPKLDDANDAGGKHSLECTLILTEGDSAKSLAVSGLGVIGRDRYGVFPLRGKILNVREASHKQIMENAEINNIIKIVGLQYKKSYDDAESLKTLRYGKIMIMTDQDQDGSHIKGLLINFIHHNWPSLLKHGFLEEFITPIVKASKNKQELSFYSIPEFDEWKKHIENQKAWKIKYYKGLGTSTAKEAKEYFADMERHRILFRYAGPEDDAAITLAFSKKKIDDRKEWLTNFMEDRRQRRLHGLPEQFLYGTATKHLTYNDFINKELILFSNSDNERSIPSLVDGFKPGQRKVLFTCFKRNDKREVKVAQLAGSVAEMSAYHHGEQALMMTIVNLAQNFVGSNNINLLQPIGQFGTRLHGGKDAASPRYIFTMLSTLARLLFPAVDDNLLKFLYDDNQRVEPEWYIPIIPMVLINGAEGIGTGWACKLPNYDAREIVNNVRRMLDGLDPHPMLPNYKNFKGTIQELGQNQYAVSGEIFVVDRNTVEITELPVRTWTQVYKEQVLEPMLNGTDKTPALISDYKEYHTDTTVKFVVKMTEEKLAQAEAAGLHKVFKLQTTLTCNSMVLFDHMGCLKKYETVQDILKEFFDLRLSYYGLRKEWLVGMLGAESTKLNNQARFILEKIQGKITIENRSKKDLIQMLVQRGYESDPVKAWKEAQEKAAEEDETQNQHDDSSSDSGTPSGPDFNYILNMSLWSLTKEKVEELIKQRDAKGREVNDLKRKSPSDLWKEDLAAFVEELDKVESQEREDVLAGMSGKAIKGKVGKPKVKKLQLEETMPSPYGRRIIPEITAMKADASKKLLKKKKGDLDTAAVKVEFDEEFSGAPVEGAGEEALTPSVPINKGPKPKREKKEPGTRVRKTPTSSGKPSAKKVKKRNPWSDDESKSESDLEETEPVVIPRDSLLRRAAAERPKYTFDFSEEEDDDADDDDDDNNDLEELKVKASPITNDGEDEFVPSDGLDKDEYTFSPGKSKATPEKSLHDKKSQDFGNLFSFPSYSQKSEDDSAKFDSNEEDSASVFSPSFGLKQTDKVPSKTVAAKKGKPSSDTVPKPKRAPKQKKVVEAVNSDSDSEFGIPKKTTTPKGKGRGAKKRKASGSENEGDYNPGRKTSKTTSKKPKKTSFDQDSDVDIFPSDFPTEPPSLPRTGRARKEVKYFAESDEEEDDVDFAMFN
Sequence of Atypical kinase COQ8A, mitochondrial (Q8NI60 whole entry): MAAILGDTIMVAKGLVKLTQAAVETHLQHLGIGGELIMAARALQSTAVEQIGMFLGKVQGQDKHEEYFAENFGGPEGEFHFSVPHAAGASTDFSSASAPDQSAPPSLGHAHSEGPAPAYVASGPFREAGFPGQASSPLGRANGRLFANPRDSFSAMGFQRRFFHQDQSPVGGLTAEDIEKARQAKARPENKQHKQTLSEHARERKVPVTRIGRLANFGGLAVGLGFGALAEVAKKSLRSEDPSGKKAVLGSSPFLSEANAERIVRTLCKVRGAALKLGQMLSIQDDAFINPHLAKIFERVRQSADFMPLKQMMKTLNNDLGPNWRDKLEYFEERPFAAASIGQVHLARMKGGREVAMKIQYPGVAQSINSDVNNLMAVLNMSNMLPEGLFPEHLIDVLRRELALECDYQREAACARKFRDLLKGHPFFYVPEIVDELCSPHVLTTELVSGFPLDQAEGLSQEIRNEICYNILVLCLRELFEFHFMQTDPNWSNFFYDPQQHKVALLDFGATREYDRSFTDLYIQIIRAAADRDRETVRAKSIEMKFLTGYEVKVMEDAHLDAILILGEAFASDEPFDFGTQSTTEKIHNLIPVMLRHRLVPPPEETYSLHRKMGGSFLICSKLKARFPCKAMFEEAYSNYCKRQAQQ
Sequence of 26S proteasome regulatory subunit 6B (P43686 whole entry): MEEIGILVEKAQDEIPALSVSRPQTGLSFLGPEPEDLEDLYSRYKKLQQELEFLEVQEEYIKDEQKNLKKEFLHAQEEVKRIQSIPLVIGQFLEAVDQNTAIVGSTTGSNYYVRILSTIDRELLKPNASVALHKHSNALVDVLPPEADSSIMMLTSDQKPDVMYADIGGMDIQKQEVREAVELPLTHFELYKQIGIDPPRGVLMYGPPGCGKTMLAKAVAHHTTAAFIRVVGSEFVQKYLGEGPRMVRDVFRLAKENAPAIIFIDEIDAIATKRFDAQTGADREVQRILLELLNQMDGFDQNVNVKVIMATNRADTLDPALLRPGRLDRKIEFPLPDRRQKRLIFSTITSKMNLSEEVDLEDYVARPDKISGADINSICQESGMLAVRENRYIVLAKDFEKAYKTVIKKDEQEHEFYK
Sequence of MAP kinase-activated protein kinase 2 (P49137 whole entry): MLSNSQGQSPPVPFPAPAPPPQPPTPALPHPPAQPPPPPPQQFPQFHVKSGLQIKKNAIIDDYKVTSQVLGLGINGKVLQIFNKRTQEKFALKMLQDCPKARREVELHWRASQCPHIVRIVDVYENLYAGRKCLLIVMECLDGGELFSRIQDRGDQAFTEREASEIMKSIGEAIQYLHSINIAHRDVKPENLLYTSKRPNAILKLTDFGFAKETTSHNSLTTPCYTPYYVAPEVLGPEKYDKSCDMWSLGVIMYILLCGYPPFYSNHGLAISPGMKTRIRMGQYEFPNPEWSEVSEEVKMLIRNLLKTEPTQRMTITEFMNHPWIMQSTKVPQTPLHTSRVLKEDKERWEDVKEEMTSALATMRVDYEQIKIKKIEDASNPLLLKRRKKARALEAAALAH

| Compound | Kd (ADP/ATP translocase 3) | Kd [1] | Kd (DNA topoisomerase 2-beta) | Kd [2] | Kd [3] | Kd [4] | Kd [5] | Kd [6] |
| --- | --- | --- | --- | --- | --- | --- | --- | --- |
| N[C@@H]1CCCN(c2c(/C=C3\SC(=O)NC3=O)cccc2-c2ccccc2)C1 | > 30 µM (inactive) | > 30 µM (inactive) | > 30 µM (inactive) | > 30 µM (inactive) | > 30 µM (inactive) | > 30 µM (inactive) | > 30 µM (inactive) | > 30 µM (inactive) |
| Cc1ccc(S(=O)(=O)Nc2nc3ccccc3nc2Nc2ccc3nsnc3c2)cc1 | > 30 µM (inactive) | > 30 µM (inactive) | > 30 µM (inactive) | > 30 µM (inactive) | > 30 µM (inactive) | > 30 µM (inactive) | > 30 µM (inactive) | > 30 µM (inactive) |
| CN1CC[C@@H](c2c(O)cc(O)c3c(=O)cc(-c4ccccc4Cl)oc23)[C@@H]1CO | > 30 µM (inactive) | > 30 µM (inactive) | > 30 µM (inactive) | > 30 µM (inactive) | > 30 µM (inactive) | > 30 µM (inactive) | > 30 µM (inactive) | > 30 µM (inactive) |
| Cc1cc(-c2cc(O)ccc2Cl)cc2nnc(Nc3ccc(OCCN4CCCC4)cc3)nc12 | > 30 µM (inactive) | > 30 µM (inactive) | > 30 µM (inactive) | > 30 µM (inactive) | > 30 µM (inactive) | > 30 µM (inactive) | > 30 µM (inactive) | > 30 µM (inactive) |
| Cn1ncc(Cl)c1-c1cc(C(=O)N[C@H](CN)Cc2cccc(F)c2)sc1Cl [AFURESERTIB] | > 30 µM (inactive) | – | > 30 µM (inactive) | > 30 µM (inactive) | > 30 µM (inactive) | > 30 µM (inactive) | > 30 µM (inactive) | > 30 µM (inactive) |
| CNS(=O)(=O)Nc1nccc(Cc2c(C)c3ccc(Oc4ncccn4)cc3oc2=O)c1F [AVUTOMETINIB] | > 30 µM (inactive) | > 30 µM (inactive) | > 30 µM (inactive) | > 30 µM (inactive) | > 30 µM (inactive) | > 30 µM (inactive) | > 30 µM (inactive) | > 30 µM (inactive) |
| CN1CCN(c2ccc3nc(-c4c(N)c5c(F)cccc5[nH]c4=O)[nH]c3c2)CC1 [DOVITINIB] | > 30 µM (inactive) | – | > 30 µM (inactive) | > 30 µM (inactive) | > 30 µM (inactive) | – | – | – |
| COC(=O)[C@@]1(O)C[C@H]2O[C@]1(C)n1c3ccccc3c3c4c(c5c6ccccc6n2c5c31)C(=O)NC4 [K-252A] | > 30 µM (inactive) | – | > 30 µM (inactive) | > 30 µM (inactive) | > 30 µM (inactive) | > 30 µM (inactive) | > 30 µM (inactive) | > 30 µM (inactive) |
| Cc1cn(-c2cc(NC(=O)c3ccc(C)c(Nc4nccc(-c5cccnc5)n4)c3)cc(C(F)(F)F)c2)cn1 [NILOTINIB] | > 30 µM (inactive) | > 30 µM (inactive) | > 30 µM (inactive) | > 30 µM (inactive) | > 30 µM (inactive) | – | – | – |
| OCCn1cc(-c2cnc3nnn(Cc4ccc5ncccc5c4)c3n2)cn1 [PF-04217903] | > 30 µM (inactive) | – | > 30 µM (inactive) | > 30 µM (inactive) | > 30 µM (inactive) | > 30 µM (inactive) | > 30 µM (inactive) | > 30 µM (inactive) |
| CNC(=O)c1ccc(C)c(-n2c(C)cc(OCc3ccc(F)cc3F)c(Br)c2=O)c1 [PH-797804] | > 30 µM (inactive) | – | > 30 µM (inactive) | > 30 µM (inactive) | > 30 µM (inactive) | > 30 µM (inactive) | > 30 µM (inactive) | – |
| CNC(=O)CN1CCC(Oc2cc3c(Nc4cccc(Cl)c4F)ncnc3cc2OC)CC1 [SAPITINIB] | > 30 µM (inactive) | – | > 30 µM (inactive) | > 30 µM (inactive) | > 30 µM (inactive) | > 30 µM (inactive) | > 30 µM (inactive) | > 30 µM (inactive) |
| C[C@@H](c1ccc2nccn2c1)n1nnc2ncc(-c3cnn(C)c3)nc21 [SAVOLITINIB] | > 30 µM (inactive) | > 30 µM (inactive) | – | > 30 µM (inactive) | > 30 µM (inactive) | > 30 µM (inactive) | > 30 µM (inactive) | – |
| O=C(Nc1cccc(Cl)c1)Nc1ncc(CCNc2ncnc3ccsc23)s1 [SNS-314] | > 30 µM (inactive) | – | > 30 µM (inactive) | > 30 µM (inactive) | 0.026 µM (active) | > 30 µM (inactive) | > 30 µM (inactive) | – |
| Nc1nc(N)c2nc(-c3cccc(O)c3)c(-c3cccc(O)c3)nc2n1 [TG100-115] | > 30 µM (inactive) | > 30 µM (inactive) | > 30 µM (inactive) | > 30 µM (inactive) | > 30 µM (inactive) | – | – | – |
| CCCS(=O)(=O)Nc1ccc(F)c(C(=O)c2c[nH]c3ncc(-c4ccc(Cl)cc4)cc23)c1F [VEMURAFENIB] | > 30 µM (inactive) | – | > 30 µM (inactive) | > 30 µM (inactive) | > 30 µM (inactive) | > 30 µM (inactive) | > 30 µM (inactive) | > 30 µM (inactive) |

Other lines, results leading:

| Kd (ADP/ATP translocase 3) | Kd [1] | Kd (DNA topoisomerase 2-beta) | Kd [2] | Kd [3] | Kd [4] | Kd [5] | Kd [6] | Compound |
| --- | --- | --- | --- | --- | --- | --- | --- | --- |
| > 30 µM (inactive) | > 30 µM (inactive) | > 30 µM (inactive) | > 30 µM (inactive) | > 30 µM (inactive) | > 30 µM (inactive) | > 30 µM (inactive) | > 30 µM (inactive) | CCN1CCN(Cc2ccc(-c3cc4c(N[C@H](C)c5ccccc5)ncnc4[nH]3)cc2)CC1 [AEE-788] |
| > 30 µM (inactive) | > 30 µM (inactive) | > 30 µM (inactive) | > 30 µM (inactive) | > 30 µM (inactive) | > 30 µM (inactive) | 1.02 µM (active) | > 30 µM (inactive) | COc1cc(N2CCC(N3CCN(C)CC3)CC2)ccc1Nc1ncnc(Nc2ccccc2S(=O)(=O)C(C)C)n1 [ASP-3026] |
| > 30 µM (inactive) | > 30 µM (inactive) | > 30 µM (inactive) | > 30 µM (inactive) | > 30 µM (inactive) | 65.3 µM (active) | – | – | Cc1nc(N)sc1-c1ccnc(Nc2ccc(N3CCOCC3)cc2)n1 [CYC-116] |
| > 30 µM (inactive) | 0.008 µM | > 30 µM (inactive) | > 30 µM (inactive) | > 30 µM (inactive) | > 30 µM (inactive) | > 30 µM (inactive) | – | Cc1cc(Nc2cc(N3CCN(C)CC3)nc(/C=C/c3ccccc3)n2)n[nH]1 [ENMD-2076] |
| > 30 µM (inactive) | > 30 µM (inactive) | > 30 µM (inactive) | > 30 µM (inactive) | > 30 µM (inactive) | – | – | – | CCn1c(-c2nonc2N)nc2c(C#CC(C)(C)O)ncc(OC[C@H]3CCCNC3)c21 [GSK-690693] |
